Assay: xn = mol fraction of the nth substance listed
Conditions: 100 kPa

CC[n+]1ccn(C)c1.O=S(=O)([N-]S(=O)(=O)C(F)(F)F)C(F)(F)F + O=C1OCCO1
x2 = 0
Conditions	electrical conductivity [S/m]	viscosity [mPa·s]
293.15 K	0.73	41.6
298.15 K	0.9	33.9
303.15 K	–	27.3
313.15 K	1.29	19.1
323.15 K	–	14.4
333.15 K	1.94	11.3
343.15 K	–	8.3
353.15 K	2.73	6.8
363.15 K	–	5.6
373.15 K	–	4.8

O=C1OCCO1 + CC[n+]1ccn(C)c1.O=S(=O)([N-]S(=O)(=O)C(F)(F)F)C(F)(F)F
Conditions	electrical conductivity [S/m]	viscosity [mPa·s]
293.15 K, x1 = 0.33	1.02	–
293.15 K, x1 = 0.5263	–	15.1
293.15 K, x1 = 0.53	1.24	–
293.15 K, x1 = 0.7476	–	8.1
293.15 K, x1 = 0.75	1.57	–
293.15 K, x1 = 0.82	1.52	–
293.15 K, x1 = 0.87	1.44	–
293.15 K, x1 = 0.91	1.33	–
293.15 K, x1 = 0.95	1.03	–
303.15 K, x1 = 0.8163	–	4.1
303.15 K, x1 = 0.9467	–	3
313.15 K, x1 = 0.33	1.68	–
313.15 K, x1 = 0.5263	–	9
313.15 K, x1 = 0.53	1.97	–
313.15 K, x1 = 0.66	2.32	–
313.15 K, x1 = 0.7476	–	4.6
313.15 K, x1 = 0.75	2.34	–
313.15 K, x1 = 0.8163	–	3.4
313.15 K, x1 = 0.82	2.23	–
313.15 K, x1 = 0.87	2.05	–
313.15 K, x1 = 0.91	1.86	–
313.15 K, x1 = 0.9467	–	2.4
313.15 K, x1 = 0.98	0.85	–
313.15 K, x1 = 1	–	1.81
323.15 K, x1 = 0.5263	–	7.1
323.15 K, x1 = 0.7476	–	3.9
323.15 K, x1 = 0.8163	–	2.8
323.15 K, x1 = 0.9467	–	2.1
323.15 K, x1 = 1	–	1.56
333.15 K, x1 = 0.5263	–	5.8
333.15 K, x1 = 0.53	2.71	–
333.15 K, x1 = 0.66	3.2	–
333.15 K, x1 = 0.7476	–	3.3
333.15 K, x1 = 0.75	3.18	–
333.15 K, x1 = 0.82	2.98	–
333.15 K, x1 = 0.87	2.7	–
333.15 K, x1 = 0.91	2.45	–
333.15 K, x1 = 0.9467	–	1.84
333.15 K, x1 = 0.98	1.1	–
333.15 K, x1 = 1	–	1.4
343.15 K, x1 = 0.7476	–	2.7
343.15 K, x1 = 0.8163	–	1.97
343.15 K, x1 = 0.9467	–	1.48
353.15 K, x1 = 0.33	3.29	–
353.15 K, x1 = 0.5263	–	4
353.15 K, x1 = 0.53	4.04	–
353.15 K, x1 = 0.7476	–	2.3
353.15 K, x1 = 0.75	4.43	–
353.15 K, x1 = 0.8163	–	1.74
353.15 K, x1 = 0.87	3.59	–
353.15 K, x1 = 0.91	3.01	–
353.15 K, x1 = 0.95	2.29	–
353.15 K, x1 = 1	–	1.07
363.15 K, x1 = 0.5263	–	3.4
363.15 K, x1 = 0.7476	–	2.03
363.15 K, x1 = 0.9467	–	1.2
363.15 K, x1 = 1	–	0.96
373.15 K, x1 = 0.7476	–	1.83
373.15 K, x1 = 0.8163	–	1.4
373.15 K, x1 = 0.9467	–	1.08
383.15 K, x1 = 0.5263	–	2.7
383.15 K, x1 = 0.8163	–	1.29
383.15 K, x1 = 0.9467	–	0.97
383.15 K, x1 = 1	–	0.74
393.15 K, x1 = 0.5263	–	2.4
393.15 K, x1 = 0.8163	–	1.19
393.15 K, x1 = 1	–	0.71
